# Measured values from EP1785417A2, “Novel non-psychotropic cannabinoids” (priority 2000, dated 2001).
# pIC50: −log10 of the molar value. Where two headings read alike, the source gives them in different places.
# Experiments:
# NMDA receptor = assay: Radioligand binding: displacement of [3H]MK-801 from rat forebrain membranes; conditions: for NMDA receptor binding / affinity: MK-801 binding to membranes
# Excerpt: (§1) Evaluation of the therapeutic effects of the novel PRS-211 compounds has now been carried out in a series of experimental systems to support the utility of these drugs as neuroprotectants, anti-inflammatory agents and anti-oxidative agents. These effects have been evaluated both in vitro and in vivo, and have been corroborated utilizing the following systems: • (a) Binding to the NMDA receptor linked channel: Non competitive antagonists of NMDA, the primary example of which is the compound MK-801, bind to a site within the NMDA receptor channel thus preventing the activation of the receptor-channel complex and the consequent neurotoxicity. The ability of various compounds to compete with the binding of tritium labeled MK-801 to brain membranes is considered a measure of their potency as NMDA non-competitive antagonists. • (b) Inhibition of prostaglandin production: The inhibitory effect of the new derivatives of Dexanabinol on prostaglandin synthesis is evaluated in macrophage cell cultures following LPS exposure to induce the inflammatory response. These assays are an indication of the anti-inflammatory activity of the individual analogs. • (c) Inhibition of Tumor Necrosis Factor Alpha: Specific aspects of the inflammatory response cascade are mediated by the cytokine TNFα. Inhibition of TNFα production and/or inhibition of TNFα release by the new analogs are assayed in macrophage cell cultures activated with LPS. This serves as another indication of the general anti-inflammatory potential of the novel compounds. • (d) Nitric Oxide Assay: As one aspect of the anti-oxidative potential of the novel analogs they were tested for their ability to inhibit the enzyme nitric oxide synthase (NOS). This assay can also serve as another indication of the anti-inflammatory cascade, as well as the anti-oxidative mechanisms. • (e) Ear Edema model: The anti-inflammatory activity of the new analogs is screened using an ear edema model in mice. This test system utilizes Croton oil or Arachidonic acid as inflammation inducers. The ability of the test compounds to prevent or diminish the inflammatory response to these stimulants is indicative of their systemic anti-inflammatory capability. • (f) Improved clinical outcome after closed head injury in rats: Severe head injury is associated with high mortality and severe neurological impairment. Animals subjected to head trauma in a controlled fashion serve as models in which to test drugs of therapeutic potential. Test compounds can be evaluated both for improved clinical outcome and for reduction of edema induced by closed head injury. The ability of compounds to reduce the severity of neurological symptoms and to reduce brain edema is considered a measure of their potency in reducing brain damage. • (g) Transient Middle cerebral artery occlusion (MCAo): The middle cerebral artery is the cerebral blood vessel most susceptible to stroke in humans. In animals, coagulation, permanent ligation or permanent placement of an occluding thread in the artery produces a permanent focal stroke affecting the MCA territory. Transient ligation or occlusion results in transient focal stroke. Both transient and permanent focal strokes result in varying degrees of edema and infarction in the affected brain regions. The ability of compounds to reduce the volumes of edema and infarction is considered a measure of their potential as anti-stroke treatment. • (h) Optic Nerve Crush: Application of mechanical pressure to the rat optical nerve results in crush injury of the axons, which is accompanied by immediate changes in oxidative metabolism and delayed axonal death and blindness. […]
# PGE2 = assay: Inhibition of prostaglandin synthesis (PGE2) in LPS-stimulated macrophage cell cultures; format: cell-based; conditions: LPS-stimulated macrophages
# Excerpt: as §1
# TNFα = assay: Inhibition of TNFα in LPS-stimulated macrophage cell cultures (ELISA); format: cell-based; conditions: LPS-stimulated macrophages
# Excerpt: as §1
# [1] = system: Nitric Oxide Synthase (NOS); assay: Inhibition of nitric oxide synthase (nitrite fluorimetric assay, LPS-stimulated macrophage cultures); format: cell-based; conditions: LPS-stimulated macrophages
# Excerpt: as §1
# ear edema model in mice = assay: Ear edema model; format: in vivo; conditions: Mus musculus, Croton oil (CO) as inducer, IP
# Excerpt: as §1
# [2] = system: transient middle cerebral artery occlusion in rats; assay: Transient middle cerebral artery occlusion (MCAo), infarct size evaluation; format: in vivo; conditions: IV, one week after the ischemic insult
# Excerpt: Experimental design. The design was a randomized one, performed in a masked fashion as to whether drug or vehicle was being given, and an attempt was made to generate approximately equal numbers of drug- and vehicle-treated animals.
# • a. Male rats (8 /treatment group) 320-380 gr. (Harlan Israel). • b. Halothane (Rhone Poulenc France) • c. Pentobarbitone (Pental Veterinary, CTS Israel). • d. Poly - L - Lysine (Sigma, USA). • e. Silk suture material 3-0 and 4-0. • f. Nylon (Polyamid) suture material 3-0. Four cm pieces were cut and positioned in a solution of 1% Poly - L - Lysine for 1 minute and dried in an oven (60 ° C) for 60 minutes. The tip of each piece was rounded under a flame. • g. Saline (Teva Medical). • h. Blank cremophor ethanol cosolvent (Pharmos). • i. Dexanabinol in cremophor ethanol cosolvent 50 mg/ml. (Both Dexanabinol and its vehicle were diluted in saline prior to drug administration. • j. Analogs PRS-211,092, PRS-211,095, PRS-211,128 PRS-211,132 and PRS-211,220 in cremophor ethanol cosolvent, 50 mg/ml. • k. The analogs were diluted in saline prior to drug administration.
# • a. Surgical details of the MCAo method used for testing dexanabinol analogs, are presented in Belayev, et al., (Belayev, Busto, Weizhao, and Ginsberg, Stroke 26:2313-2319, 1995) which is incorporated herein in its entirety by reference. • b. Two hours after the start of MCAO, the animals were reanesthetized with halothane, the neck wound was re-opened and the nylon thread pulled out of the Internal carotid artery (ICA). The skin wound was then closed with 3-0 silk suture material and the animals allowed to recover from the anesthesia. • c. Three sets of animals were tested. In the first test immediately (2+0 hours) before thread removal the animals were injected IV with either analogs PRS-211,095, PRS-211,128, PRS-211,132, or Dexanabinol (PRS-211,007) each at a dosage of 5 mg/kg. One group of animals was treated with 5ml/kg vehicle alone. In another group, the animals subjected to "sham" operation, the suture was passed into the ICA, as described above, but immediately withdrawn. In the second set dexanabinol, PRS-211,092, PRS-211,095 and PRS-211,220 were used, at 2+0 hours. In the third set dexanabinol, PRS-211,092, PRS-211,095 and PRS-211,220 were administered 1 hour after thread removal (2+1 hours). Laser Doppler Flow (LDF) determined the success of MCAo - a drop of more then 50% in cerebral blood flow was considered as a sign of successful MCAo. Although LDF was a helpful corroborative sign, clinical outcome remained the final inclusion/exclusion criterion, since, with the exception of the PRS-211,220 staircase study, LDF was introduced only after initiation of the study.
# A detailed investigation of neurological performance was carried out on the first, third and the 7th day after the MCAo. Two parameters were examined: posture and the flexion reflex (based on Nokon and Chuang, NeuroReport 9, 1998: 2081-2084). Animals were scored according to their performance:
# One week after the ischemic insult, animals were euthanized with pentobarbitone 100 mg/kg IP. The animals were perfused through the heart with heparinized 4% formaldehyde solution in PBS (pH 7.4). Brains were then removed, and kept in the same solution before preparation for histological evaluation of the brain infarct volume.
# [3] = system: rat model of myocardial ischemia; assay: Rat model of myocardial ischemia and reperfusion; format: in vivo, rats; conditions: given 15 minutes before occlusion; 45 minutes occlusion, 4 hours reperfusion; versus vehicle
# transient MCAo in rats = assay: Transient MCAo evaluated by the staircase test; format: in vivo
# Method: The materials for this procedure are identical to those from Physiological Example 5, except for the different concentrations of PRS-211,095. The procedural differences are as follows: • Male Sprague Dawley rats, 230-270 gr (Harlan, Israel) were used. The following compounds and their respective concentrations were tested: • Dexanabinol and analogs PRS-211,095 and PRS-211,220 in PEG ethanol cosolvent 50 mg/ml. Dexanabinol, the analogs and their vehicle were diluted in Intralipid® 20% (Pharmacia) prior to drug administration.
# The procedure is essentially as described in Montoya et al. (Montoya, Campbell-Hope, Pemberton and Dunnet, J. Neurosci. Meth. 36:219-228, 1991) Animals were kept under mild food deprivation for 3-5 days, receiving 15-gr. food once a day (between 16:00 and 17:00) and free access to water. Animals were trained prior to the test for 3-5 days according to the protocol of Sharkey et. al. (Sharkey, Crawford, Butcher and Martson, Stroke 27:2282-2286, 1996).
# In brief, the staircase box contains two rows of seven stairs in each. Two 45 mg food pellets were placed on each step. Animals were placed in the box for 15 minutes sessions. At the end of the session the number of eaten (grasped) and displaced pellets was counted and recorded. Animals were tested twice a day, 4 hours apart. The first session was performed between 8-9 AM and second between 12-13 PM. The animals were trained until they grasped (ate) at least 8 pellets from each set of stairs for two consecutive sessions. Up to one week after the end of the successful training session the animals underwent transient MCAo. Transient MCAo was performed in essentially the same manner as described in Physiological example 5 with the following modification at step i: • Two minutes prior to thread removal rats were re-anesthetized and administered IV with Dexanabinol 5mg/kg, analogs PRS-211,220 or PRS-211,095 at 0.5, 2.5, 5 or 10 mg/kg or vehicle 5 ml/kg. One additional group was sham-treated.
# (§2) Animals were allowed to recover from the surgery for five days. The mild food deprivation was re-employed during the days following the ischemic insult. They were tested in the staircase box using the above method for 9-12 days. Animals were weighed twice a week during this period.
# At the end of the evaluation period, animals were euthanized with pentobarbitone 100 mg/kg IP. The animals were perfused through the heart with heparinized 4% formaldehyde solution in PBS (pH 7.4). Brains were then removed, and kept in the same solution for at least 24h. Then the brains - from the rostral side of the cortex to the cerebellum- were sunk in 30% sucrose in PBS, cryosectioned (20 µm), dried and stained with thionin for histological evaluation of the brain infarct volume. Eight sections at the levels of: 3.3;+2.8;+1.8; +0.8; -0.4;-1.4; -2.2; and -3.4 from Bregma were measured (Swanson, Rat Brain Atlas, 1992). Sections were captured by a CCD camera (V-tech MP-470) and image analyzed (Scion image 1.62A). Infarct size was determined from the series of the 8 sections by either calculation of the infarct volume (mm3) by summing the series of mean lesion areas of two adjacent sections multiplied by the distance between them or calculation of the mean infarct size as percentage of the contralateral hemisphere size; calculation of the mean of the surviving ipsilateral side as percentage of the contralateral hemisphere size; calculation of the mean ipsilateral side ventricle as percentage of the contralateral hemisphere ventricle.
# • a. The infarct size was compared using ANOVA (analysis of variance) followed by Duncan's post hoc test. • b. […]
# [4] = Body weight gain during staircase testing after transient MCAo; format: in vivo, rats; conditions: compared to base line
# Method: as §2
# Animals were kept under mild food deprivation during the staircase testing (except during weekends). Under these conditions, the following results were observed: • Sham and PRS-211,095 10 mg/kg treated rats gained the maximal body weight (15 and 17% respectively compared to base line). […] These differences were not statistically different.
# [5] = displacement of [3H]MK-801, rat forebrain membranes, read-out: NMDA BINDING IC50
structure (smiles),measurement,setting,value
"CCCCCCC(C)(C)c1cc(O)c2c(c1)OC(C)(C)[C@H]1CC=C(CSc3ncc[nH]3)C[C@H]21 (single isomer, unassigned) [211,092-000]",NMDA receptor binding / affinity,NMDA receptor,low affinity
same,pIC50,NMDA receptor; [5],< 4.30
same,inhibition at 10 µM,PGE2,57%
same,inhibition at 10 µM,TNFα,22%
same,inhibition at 10 µM,[1],0%
same,ED50,ear edema model in mice,28 µmol/kg
same,reduction of infarct size,[2],52%
same,"infarct size (AN/AR, AN/LV)",[3],clear decrease in infarct size
"CCCCCCC(C)(C)c1cc(O)c2c(c1)OC(C)(C)[C@H]1CC=C(Cn3cccn3)C[C@H]21 [211,220-000, (+)-(3S,4S)-6,6-Dimethyl-(1,1-dimethylheptyl)-1-hydroxy-9-(pyrazolomethyl)-6a,7,10,10a-tetrahydro-6H-dibenzo[b,d]pyran]",NMDA receptor binding / affinity,NMDA receptor,relatively high affinity
same,pIC50,"NMDA receptor; [3H]MK-801 binding, text to Figure 2, read-out: mean IC50",6.46
same,pIC50,NMDA receptor; [5],6.46
same,inhibition at 10 µM,PGE2,47%
same,inhibition at 10 µM,TNFα,11%
same,inhibition at 10 µM,[1],11%
same,ED50,ear edema model in mice,57 µmol/kg
same,"pellet consumption, improvement over vehicle","transient MCAo in rats; 0.1 mg/kg, contralateral",20-30%
same,"pellet consumption, improvement relative to vehicle alone","transient MCAo in rats; 0.5 mg/kg, contralateral, p<0.05",> 60%
same,"potency relative to PRS-211,095 and dexanabinol","transient MCAo in rats; 0.5 mg/kg, session 3 of the staircase",at least 10 times
same,"pellet consumption, improvement over vehicle","transient MCAo in rats; 2.5 mg/kg, contralateral",20-30%
same,"pellet consumption, improvement over vehicle","transient MCAo in rats; 5.0 mg/kg, contralateral",20-30%
same,Mortality Rate(%),"transient MCAo in rats; Table 5, 0.1 mg/kg IV",25%
same,No. Dead Animals,"transient MCAo in rats; Table 5, 0.1 mg/kg IV",4
same,Mortality Rate(%),"transient MCAo in rats; Table 5, 0.5 mg/kg IV",18.75%
same,No. Dead Animals,"transient MCAo in rats; Table 5, 0.5 mg/kg IV",3
same,Mortality Rate(%),"transient MCAo in rats; Table 5, 2.5 mg/kg IV",30.7%
same,No. Dead Animals,"transient MCAo in rats; Table 5, 2.5 mg/kg IV",4
same,Mortality Rate(%),"transient MCAo in rats; Table 5, 5 mg/kg IV",14%
same,No. Dead Animals,"transient MCAo in rats; Table 5, 5 mg/kg IV",2
same,body weight gain,[4]; 0.1 mg/kg,3%
same,body weight gain,[4]; 0.5 mg/kg,10%
same,body weight gain,[4]; 2.5 mg/kg,5%
same,body weight gain,[4]; 5 mg/kg,4%
